Literature values, collected in patent US20230118497A1, “PYRAZOLE-CONTAINING POLYCYCLIC DERIVATIVE INHIBITOR, PREPARATION METHOD THEREFOR AND APPLICATION THEREOF” (Shanghai Hansoh Biomedical Co., Ltd., priority 2019, published 2023).

What was measured:
[1] = phase I clinical trials; cited from earlier work
[2] = phase 2 RELIEF trial, patients with refractory chronic cough, any dose; cited from earlier work
P2X3/P2X2/3 = conditions: background; cited from earlier work

SMILES: CNC(=O)c1cc(F)c(-c2nc3cc(C)ccn3c2C[C@H]2CN(C(=O)OC)CCO2)c(F)c1 [BLU5937]
- side effects [1]: no side effects such as taste side effects appeared
- primary endpoint of placebo-adjusted reduction in cough frequency [2]: failed to achieve statistical significance
- selectivity to P2X3/P2X2/3 (P2X3/P2X2/3): high selectivity
